Measurements reported in patent US11311542B2, “Inhibitors of cyclin dependent kinase 7 (CDK7)” (Syros Pharmaceuticals, Inc., priority 2018, dated 2022).
Where two headings read alike, the source gives them in different places.

Assays:
COV504 cells = assay: Inhibition of cell proliferation (CyQUANT Direct), COV504; format: cell-based, human; conditions: COV504, 72-hour
[1] = target: CDK12 (aa686-1082)/Cyclin K complex (Homo sapiens, UniProt Q9NYV4); assay: CDK12 kinase inhibition assay (Caliper/LabChip EZ Reader)
[2] = target: CDK7/Cyclin H/MAT1 complex (Homo sapiens, UniProt P50613); assay: CDK7 kinase inhibition assay (Caliper/LabChip EZ Reader)
Description: (§1) Compounds described herein were assayed for inhibition of CDK7, CDK9, CDK12, and CDK2 activity at Biortus Biosciences (Jiangyin, Jiangsu Province, P.R. of China) using kinase assays for each CDK developed with a Caliper/LabChip EZ Reader (Perkin Elmer, Waltham, Mass.).
(§2) Furthermore, the CDK9 inhibition assay used CDK9/Cyclin T1 complex (8 nM) and “5-FAM-CDK9tide” peptide substrate (2 μM, synthesized fluorophore-labeled peptide with the following sequence: 5-FAM-GSRTPMY-NH2 (SEQ ID NO:2) where 5-FAM is defined above and NH2 signifies a C-terminal amide) with 10 mM MgCl2 in the buffer composition listed above. The CDK12 inhibition assay used CDK12 (aa686-1082)/Cyclin K complex (50 nM) and “5-FAM-CDK9tide” (2 μM) as defined above, with 2 mM MgCl2 in the buffer composition above. Additionally, the CDK2 inhibition assay used CDK2/Cyclin E1 complex (0.5 nM) and “5-FAM-CDK7tide” (2 μM; defined above) with 2 mM MgCl2 in the buffer composition above.
(§3) The incubation period at 27° C. for each CDK inhibition assay was chosen such that the fraction of phosphorylated peptide product produced in each assay, relative to the total peptide concentration, was approximately 20% (±5%) for the uninhibited kinase (35 min. for CDK7, 35 min. for CDK2, 3 hr. for CDK12, 15 min. for CDK9).

COV318 cells = assay: Inhibition of cell proliferation (CyQUANT Direct), COV318; format: cell-based, human; conditions: COV318, 72-hour
CDK9/Cyclin T1 complex = CDK9/Cyclin T1 complex (Homo sapiens, UniProt P50750); assay: CDK9 kinase inhibition assay (Caliper/LabChip EZ Reader)
Description: as §1, §2, §3

HCC70 cells = assay: Inhibition of cell proliferation (CyQUANT Direct), HCC70; format: cell-based, human; conditions: HCC70, 72-hour
MB453 cells = assay: Inhibition of cell proliferation (CyQUANT Direct), MB453; format: cell-based, human; conditions: MB453, 72-hour
CDK2/Cyclin E1 complex = CDK2/Cyclin E1 complex (Homo sapiens, UniProt P24941); assay: CDK2 kinase inhibition assay (Caliper/LabChip EZ Reader)
Description: as §1, §2, §3

[3] = read-out: CDK12 IC50, CDK12 (aa686-1082)/Cyclin K 50 nM, ATP 2 mM, 3 hr at 27° C.
[4] = read-out: CDK7 IC50, CDK7/Cyclin H/MAT1 6 nM, ATP 2 mM, 35 min at 27° C.
[5] = read-out: CDK9 IC50, CDK9/Cyclin T1 8 nM, ATP 2 mM, 15 min at 27° C.
[6] = read-out: CDK2 IC50, CDK2/Cyclin E1 0.5 nM, ATP 2 mM, 35 min at 27° C.

CDK9/Cyclin T1 complex, sequence (P50750 whole entry): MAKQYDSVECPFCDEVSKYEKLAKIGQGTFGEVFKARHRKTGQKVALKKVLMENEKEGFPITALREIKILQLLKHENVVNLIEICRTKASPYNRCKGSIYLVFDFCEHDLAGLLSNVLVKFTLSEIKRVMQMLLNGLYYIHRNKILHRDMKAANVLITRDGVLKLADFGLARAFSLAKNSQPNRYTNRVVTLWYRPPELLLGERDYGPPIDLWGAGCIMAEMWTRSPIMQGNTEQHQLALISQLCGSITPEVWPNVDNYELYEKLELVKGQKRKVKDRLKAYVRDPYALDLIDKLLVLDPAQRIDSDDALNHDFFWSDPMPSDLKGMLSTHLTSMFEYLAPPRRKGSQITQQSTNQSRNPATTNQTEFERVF
CDK9/Cyclin T1 complex, sequence (O60563 whole entry partner): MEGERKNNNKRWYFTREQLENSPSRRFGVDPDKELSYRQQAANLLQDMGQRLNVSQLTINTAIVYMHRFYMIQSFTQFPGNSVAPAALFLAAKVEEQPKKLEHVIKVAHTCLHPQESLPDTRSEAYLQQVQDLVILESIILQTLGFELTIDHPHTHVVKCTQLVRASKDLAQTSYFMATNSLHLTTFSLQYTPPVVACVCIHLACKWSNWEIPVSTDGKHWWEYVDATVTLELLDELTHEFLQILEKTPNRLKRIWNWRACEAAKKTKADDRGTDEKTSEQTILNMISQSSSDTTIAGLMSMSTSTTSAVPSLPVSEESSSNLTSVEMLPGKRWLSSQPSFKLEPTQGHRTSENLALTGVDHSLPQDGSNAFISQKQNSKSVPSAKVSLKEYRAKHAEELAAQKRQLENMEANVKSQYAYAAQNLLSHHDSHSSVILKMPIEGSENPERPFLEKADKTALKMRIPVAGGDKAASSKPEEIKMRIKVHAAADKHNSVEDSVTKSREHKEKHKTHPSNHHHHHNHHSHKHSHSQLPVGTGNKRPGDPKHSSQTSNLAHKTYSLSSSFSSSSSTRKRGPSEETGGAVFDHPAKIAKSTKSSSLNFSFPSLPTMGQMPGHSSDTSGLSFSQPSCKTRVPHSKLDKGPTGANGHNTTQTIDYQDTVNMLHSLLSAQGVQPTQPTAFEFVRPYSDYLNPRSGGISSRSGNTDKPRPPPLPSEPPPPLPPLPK
CDK12 (aa686-1082)/Cyclin K complex, sequence (Q9NYV4 686-1082): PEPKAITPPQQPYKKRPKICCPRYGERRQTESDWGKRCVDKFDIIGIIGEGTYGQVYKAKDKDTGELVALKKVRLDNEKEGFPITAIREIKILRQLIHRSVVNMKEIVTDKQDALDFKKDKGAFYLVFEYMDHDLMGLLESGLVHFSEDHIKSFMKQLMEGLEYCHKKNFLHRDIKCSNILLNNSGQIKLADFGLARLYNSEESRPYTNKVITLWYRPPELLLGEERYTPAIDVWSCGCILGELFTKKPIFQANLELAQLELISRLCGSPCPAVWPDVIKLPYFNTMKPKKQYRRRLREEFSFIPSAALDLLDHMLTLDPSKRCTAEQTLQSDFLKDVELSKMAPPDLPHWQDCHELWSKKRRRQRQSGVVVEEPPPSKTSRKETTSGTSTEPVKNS
CDK12 (aa686-1082)/Cyclin K complex, sequence (O75909 whole entry partner, the tested form may be a part): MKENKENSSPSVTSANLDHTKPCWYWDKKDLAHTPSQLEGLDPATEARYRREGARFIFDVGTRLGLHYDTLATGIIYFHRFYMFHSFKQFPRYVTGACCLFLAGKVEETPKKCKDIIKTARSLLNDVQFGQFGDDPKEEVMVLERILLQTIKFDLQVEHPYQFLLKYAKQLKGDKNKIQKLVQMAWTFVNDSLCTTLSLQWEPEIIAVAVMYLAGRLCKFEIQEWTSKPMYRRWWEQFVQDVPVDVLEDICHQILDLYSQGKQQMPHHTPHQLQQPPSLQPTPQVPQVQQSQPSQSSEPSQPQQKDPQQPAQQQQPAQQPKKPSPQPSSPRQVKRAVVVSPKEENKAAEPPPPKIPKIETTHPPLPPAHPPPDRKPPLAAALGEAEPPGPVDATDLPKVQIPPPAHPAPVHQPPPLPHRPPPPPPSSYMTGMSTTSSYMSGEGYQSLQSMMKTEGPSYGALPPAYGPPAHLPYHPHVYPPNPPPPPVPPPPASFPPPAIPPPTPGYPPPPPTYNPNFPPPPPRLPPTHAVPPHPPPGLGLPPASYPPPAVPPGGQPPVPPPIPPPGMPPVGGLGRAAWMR
CDK7/Cyclin H/MAT1 complex, sequence (P50613 whole entry): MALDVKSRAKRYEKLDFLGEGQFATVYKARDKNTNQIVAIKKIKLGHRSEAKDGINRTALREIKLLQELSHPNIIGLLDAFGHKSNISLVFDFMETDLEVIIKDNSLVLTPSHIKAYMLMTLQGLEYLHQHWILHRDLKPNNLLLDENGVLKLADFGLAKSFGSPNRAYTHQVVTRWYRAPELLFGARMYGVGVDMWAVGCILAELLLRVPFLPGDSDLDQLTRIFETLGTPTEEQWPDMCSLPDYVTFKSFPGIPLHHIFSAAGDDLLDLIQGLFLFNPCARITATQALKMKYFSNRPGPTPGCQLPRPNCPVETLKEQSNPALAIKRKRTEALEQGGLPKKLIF
CDK7/Cyclin H/MAT1 complex, sequence (P51946 whole entry partner): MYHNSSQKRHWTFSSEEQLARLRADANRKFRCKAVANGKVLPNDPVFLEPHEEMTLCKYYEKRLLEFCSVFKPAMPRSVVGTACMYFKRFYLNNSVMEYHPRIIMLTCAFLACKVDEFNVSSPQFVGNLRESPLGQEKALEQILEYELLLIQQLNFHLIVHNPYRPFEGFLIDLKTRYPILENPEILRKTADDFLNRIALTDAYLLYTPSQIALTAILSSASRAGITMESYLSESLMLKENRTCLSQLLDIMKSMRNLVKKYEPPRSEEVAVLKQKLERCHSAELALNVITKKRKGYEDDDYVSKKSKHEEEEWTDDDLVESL
CDK7/Cyclin H/MAT1 complex, sequence (P51948 whole entry partner): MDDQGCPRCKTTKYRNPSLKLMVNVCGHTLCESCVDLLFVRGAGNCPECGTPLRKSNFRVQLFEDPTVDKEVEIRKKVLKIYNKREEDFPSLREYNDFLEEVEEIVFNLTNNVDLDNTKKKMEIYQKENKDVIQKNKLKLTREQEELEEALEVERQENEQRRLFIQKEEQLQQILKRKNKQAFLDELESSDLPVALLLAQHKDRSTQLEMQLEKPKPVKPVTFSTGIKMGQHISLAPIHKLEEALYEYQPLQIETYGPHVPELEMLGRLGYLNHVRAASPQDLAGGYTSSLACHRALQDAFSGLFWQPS

Compound | IC50 (COV504 cells; Homo sapiens) [nM] | IC50 [1] [nM] | IC50 [2] [nM] | IC50 (COV318 cells; Homo sapiens) [nM] | IC50 (CDK9/Cyclin T1 complex) [nM] | IC50 (HCC70 cells; Homo sapiens) [nM] | IC50 (MB453 cells; Homo sapiens) [nM] | IC50 (CDK2/Cyclin E1 complex) [nM] | IC50 (COV504 cells) [nM] | IC50 [1, 3] [nM] | IC50 [2, 4] [nM] | IC50 (COV318 cells) [nM] | IC50 (CDK9/Cyclin T1 complex; [5]) [nM] | IC50 (HCC70 cells) [nM] | IC50 (MB453 cells) [nM] | IC50 (CDK2/Cyclin E1 complex; [6]) [nM]
Cc1ncoc1-c1ccc2c(-c3nc(N[C@H]4CCCNC4)ncc3C(F)(F)F)c[nH]c2n1 [Compound 161, 4-[6-(4-methyloxazol-5-yl)-1H-pyrrolo[2,3-b]pyridin-3-yl]-N-[(3S)-3-piperidyl]-5-(trifluoromethyl)pyrimidin-2-amine] | < 100 | > 500 | < 30 | 100 to 500 | > 500 | < 100 | < 100 | > 500 |  |  |  |  |  |  |  | 
Cc1nc(-c2ccc3c(-c4nc(N[C@H]5CC[C@H](C)NC5)ncc4C(F)(F)F)c[nH]c3n2)no1 [Compound 162, 4-[6-(5-methyl-1,2,4-oxadiazol-3-yl)-1H-pyrrolo[2,3-b]pyridin-3-yl]-N-[(3S,6S)-6-methyl-3-piperidyl]-5-(trifluoromethyl)pyrimidin-2-amine] | < 100 | > 500 | < 30 | > 1000 | > 500 | 100 to 500 | 500 to 1000 | > 500 |  |  |  |  |  |  |  | 
Cc1nc(-c2ccc3c(-c4nc(N[C@@H]5CC[C@@H](C)NC5)ncc4C(F)(F)F)c[nH]c3n2)no1 [Compound 163, 4-[6-(5-methyl-1,2,4-oxadiazol-3-yl)-1H-pyrrolo[2,3-b]pyridin-3-yl]-N-[(3R, 6R)-6-methyl-3-piperidyl]-5-(trifluoromethyl)pyrimidin-2-amine] | < 100 | > 500 | < 30 | > 1000 | > 500 | < 100 | < 100 | > 500 |  |  |  |  |  |  |  | 
C[C@@H]1CC[C@@H](Nc2ncc(C(F)(F)F)c(-c3c[nH]c4nc(-c5nnnn5C)ccc34)n2)CN1 [Compound 164, N-[(3R, 6R)-6-methyl-3-piperidyl]-4-[6-(1-methyltetrazol-5-yl)-1H-pyrrolo[2,3-b]pyridin-3-yl]-5-(trifluoromethyl)pyrimidin-2-amine] | < 100 | > 500 | < 30 | 500 to 1000 | > 500 | 100 to 500 | < 100 | > 500 |  |  |  |  |  |  |  | 
C[C@H]1CC[C@H](Nc2ncc(C(F)(F)F)c(-c3c[nH]c4nc(-c5nnnn5C)ccc34)n2)CN1 [Compound 165, N-[(3S,6S)-6-methyl-3-piperidyl]-4-[6-(1-methyltetrazol-5-yl)-1H-pyrrolo[2,3-b]pyridin-3-yl]-5-(trifluoromethyl)pyrimidin-2-amine] | 500 to 1000 | > 500 | 30 to 100 | > 1000 | > 500 | > 1000 | 500 to 1000 | > 500 |  |  |  |  |  |  |  | 
Cc1nc(-c2ccc3c(-c4nc(N[C@H]5CC[C@H](C)NC5)ncc4C(F)(F)F)n[nH]c3n2)no1 [Compound 167, 4-[6-(5-methyl-1,2,4-oxadiazol-3-yl)-1H-pyrazolo[3,4-b]pyridin-3-yl]-N-[(3S,6S)-6-methyl-3-piperidyl]-5-(trifluoromethyl)pyrimidin-2-amine] | < 100 | > 500 | < 30 | 100 to 500 | > 500 | < 100 | 100 to 500 | > 500 |  |  |  |  |  |  |  | 
Cc1nc(-c2ccc3c(-c4nc(N[C@H]5CCCNC5)ncc4C(F)(F)F)n[nH]c3n2)no1 [Compound 168, 4-[6-(5-methyl-1,2,4-oxadiazol-3-yl)-1H-pyrazolo[3,4-b]pyridin-3-yl]-N-[(3S)-3-piperidyl]-5-(trifluoromethyl)pyrimidin-2-amine] | < 100 | > 500 | < 30 | < 100 | > 500 | < 100 | < 100 | > 500 |  |  |  |  |  |  |  | 
(3S)-tert-butyl 3-((4-(6-(3,5-dimethylisoxazol-4-yl)-5-fluoro-1H-pyrrolo[2,3-b]pyridin-3-yl)-5-(trifluoromethyl)pyrimidin-2-yl)amino)piperidine-1-carboxylate [Compound 138] |  |  |  |  |  |  |  |  | < 100 | > 500 | < 30 | < 100 | > 500 | < 100 | < 100 | > 500
(3S,4S)-tert-butyl 3-((4-(6-(3,5-dimethylisoxazol-4-yl)-1H-indol-3-yl)-5-(trifluoromethyl)pyrimidin-2-yl)amino)-4-methylpiperidine-1-carboxylate [Compound 135] |  |  |  |  |  |  |  |  | < 100 | > 500 | 30 to 100 | > 1000 | > 500 | 100 to 500 | < 100 | > 500
(S)-tert-butyl 3-((4-(6-(3,5-dimethylisothiazol-4-yl)-1H-pyrrolo[2,3-b]pyridin-3-yl)-5-(trifluoromethyl)pyrimidin-2-yl)amino)piperidine-1-carboxylate [Compound 166] |  |  |  |  |  |  |  |  | < 100 | > 500 | < 30 | < 100 | > 500 | < 100 | < 100 | > 500
